The target of one test is DRB1*0101 (DR1) (Homo sapiens, UniProt P01903+P01911, A100R/D57E/F55L/F60I/F76Y/I96L/L162R/M171V/P40L/Q125E/R42F/V115G/Y59C). The test can be described thus: HLA class II binding assay, purified HLA molecules. Particulars: Her2/neu DR supertype primary binding, Table XXVIII.
A further test concerns the target DRB1*0701 (DR7) (Homo sapiens, UniProt P01903+P01911, A100R/A102G/A103Q/D57E/D86V/E43K/F76Y/K127E/L162R/M171V/P40G/Q125H/Q99D/R33Q/R42Y/R54Q/S133A/S66F/T210M/V115G/Y107V/Y59L/Y89S). The experiment in a line: HLA class II binding assay, purified HLA molecules. The note with it: Her2/neu DR supertype primary binding, Table XXVIII.
The target of a further test is A*0101 (Homo sapiens, UniProt P04439, A114D/A174V/A182V/D101N/D185E/E176A/E190D/L180R/Q94H/R68K/S129P/T187R/V100A/V91M/W191G). The test can be described thus: HLA class I binding assay, purified HLA molecules, inhibition of 125I-radiolabeled probe peptide. The note with it: HLA-A1 Motif-Bearing Peptides, Table XXV.
The next test has as its target A*2402 (Homo sapiens, UniProt P04439, D101N/D140Y/D185E/E176V/E190D/F33S/G103R/G107R/I119L/I121M/I306V/K335N/L105A/L180Q/L300P/N151K/N90K/Q86E/Q94H/R106L/R138H/R89G/T104I/T345S/V100E/W191G/Y123F). The experiment in a line: HLA class I binding assay, purified HLA molecules. The note with it: HLA-A24 Motif-Bearing Peptides, Table XXVI.
In the next test the target is DRB1*0401 (DR4w4) (Homo sapiens, UniProt P01903+P01911, A100K/A169T/F76Y/I96L/K127E/L162R/M171V/N62H/P40V/Q125Y/R42H/S133A/S149N/S66Y/V115G/V209L/W38E). The test can be described thus: HLA class II binding assay, purified HLA molecules. Particulars: Her2/neu DR supertype primary binding, Table XXVIII.

Where no end group is shown, it is not given here. Bounds are passed on as bounds.

On to `CC(C)C[C@H](NC(=O)[C@H](C)NC(=O)[C@H](Cc1ccc(O)cc1)NC(=O)[C@H](CC(N)=O)NC(=O)[C@H](CC(=O)O)NC(=O)[C@H](CCC(=O)O)NC(=O)[C@H](Cc1ccccc1)NC(=O)[C@H](CC(C)C)NC(=O)[C@H](CCC(N)=O)NC(=O)[C@@H](N)[C@@H](C)O)C(=O)N[C@@H](C)C(=O)N[C@H](C(=O)N[C@@H](CC(C)C)C(=O)N[C@@H](CC(=O)O)C(=O)N[C@@H](CC(N)=O)C(=O)O)C(C)C` [Her2/neu.105], for which the half-inhibitory concentration (IC50) at DRB1*0101 (DR1) is 94 nM; on DRB1*0701 (DR7), 1560 nM.

`CC(C)[C@H](N)C(=O)N[C@H](C(=O)N[C@@H](C)C(=O)N[C@@H](CS)C(=O)N1CCC[C@H]1C(=O)N[C@@H](Cc1ccc(O)cc1)C(=O)N[C@@H](CC(N)=O)C(=O)N[C@@H](Cc1ccc(O)cc1)C(=O)O)[C@@H](C)O` [Her2/neu.296]: at A*0101, the half-maximal inhibitory concentration (IC50) stood at 250 nM.

On to `CC[C@H](C)[C@H](NC(=O)[C@H](CCCCN)NC(=O)[C@H](CCCCN)NC(=O)[C@@H](N)CS)C(=O)N[C@@H](Cc1ccccc1)C(=O)NCC(=O)N[C@@H](CO)C(=O)N[C@@H](CC(C)C)C(=O)N[C@@H](C)C(=O)N[C@@H](Cc1ccccc1)C(=O)N[C@@H](CC(C)C)C(=O)N1CCC[C@H]1C(=O)N[C@@H](CCC(=O)O)C(=O)N[C@@H](CO)C(=O)N[C@@H](Cc1ccccc1)C(=O)O` [Her2/neu.367], for which the IC50 at DRB1*0101 (DR1) is 21 nM.

The compound `CC[C@H](C)[C@H](NC(=O)[C@@H]1CCCN1C(=O)[C@H](CCSC)NC(=O)[C@H](Cc1ccc(O)cc1)NC(=O)[C@@H](N)CO)C(=O)N[C@@H](Cc1c[nH]c2ccccc12)C(=O)N[C@@H](CCCCN)C(=O)N[C@@H](Cc1ccccc1)C(=O)O` [Her2/neu.609] yielded an IC50 on A*2402 of 38 nM.

As for `CC[C@H](C)[C@H](NC(=O)CNC(=O)[C@@H](NC(=O)[C@@H](NC(=O)[C@H](C)NC(=O)[C@H](CO)NC(=O)[C@@H](NC(=O)[C@@H](NC(=O)[C@H](CO)NC(=O)[C@@H](NC(=O)[C@H](CC(C)C)NC(=O)[C@@H]1CCCN1C(=O)[C@H](CO)NC(=O)[C@H](C)N)[C@@H](C)O)[C@@H](C)CC)[C@@H](C)CC)C(C)C)C(C)C)C(=O)N[C@@H](CC(C)C)C(=O)O` [Her2/neu.648], on DRB1*0101 (DR1), the IC50 stood at 56 nM.

`CC[C@H](C)[C@H](NC(=O)CNC(=O)[C@@H](NC(=O)[C@@H](NC(=O)[C@H](C)NC(=O)[C@H](CO)NC(=O)[C@@H](NC(=O)[C@@H](NC(=O)[C@H](CO)NC(=O)[C@@H](NC(=O)[C@@H](N)CC(C)C)[C@@H](C)O)[C@@H](C)CC)[C@@H](C)CC)C(C)C)C(C)C)C(=O)N[C@@H](CC(C)C)C(=O)N[C@@H](CC(C)C)C(=O)N[C@H](C(=O)N[C@H](C(=O)O)C(C)C)C(C)C` [Her2/neu.651] returned an IC50 at DRB1*0101 (DR1) of 26 nM.

Compound `CC[C@H](C)[C@H](NC(=O)[C@H](C)NC(=O)[C@@H](NC(=O)[C@@H]1CCCN1C(=O)[C@@H](NC(=O)[C@H](CCCCN)NC(=O)[C@@H](NC(=O)[C@H](CC(N)=O)NC(=O)[C@H](CCC(=O)O)NC(=O)CN)C(C)C)[C@@H](C)CC)C(C)C)C(=O)N[C@@H](CCCCN)C(=O)N[C@H](C(=O)N[C@@H](CC(C)C)C(=O)N[C@@H](CCCNC(=N)N)C(=O)N[C@@H](CCC(=O)O)C(=O)O)C(C)C` [Her2/neu.743] gave a 50% inhibitory concentration (IC50) at DRB1*0101 (DR1) of 79 nM. Compared with the last compound, the IC50 is about 3-fold higher.

Regarding `CC[C@H](C)[C@H](NC(=O)[C@H](CCC(=O)O)NC(=O)[C@@H](N)CCCCN)C(=O)N[C@@H](CC(C)C)C(=O)N[C@@H](CC(=O)O)C(=O)N[C@@H](CCC(=O)O)C(=O)N[C@@H](C)C(=O)N[C@@H](Cc1ccc(O)cc1)C(=O)N[C@H](C(=O)N[C@@H](CCSC)C(=O)N[C@@H](C)C(=O)NCC(=O)N[C@H](C(=O)NCC(=O)N[C@@H](CO)C(=O)O)C(C)C)C(C)C` [Her2/neu.765], the IC50 at DRB1*0401 (DR4w4) was 6160 nM.

For the compound `CSCC[C@H](NC(=O)[C@@H](NC(=O)[C@H](Cc1ccc(O)cc1)NC(=O)[C@H](C)NC(=O)[C@H](CCC(=O)O)NC(=O)[C@@H](N)CC(=O)O)C(C)C)C(=O)N[C@@H](C)C(=O)NCC(=O)N[C@H](C(=O)NCC(=O)N[C@@H](CO)C(=O)N1CCC[C@H]1C(=O)N[C@@H](Cc1ccc(O)cc1)C(=O)N[C@H](C(=O)N[C@@H](CO)C(=O)O)C(C)C)C(C)C` [Her2/neu.769], the half-inhibitory concentration (IC50) on DRB1*0101 (DR1) is 100 nM; on DRB1*0401 (DR4w4) it was 196 nM.

With `CSCC[C@H](NC(=O)[C@H](CC(C)C)NC(=O)[C@H](CCC(N)=O)NC(=O)[C@@H](NC(=O)[C@@H](NC(=O)[C@H](CC(C)C)NC(=O)[C@H](CCC(N)=O)NC(=O)[C@@H](NC(=O)[C@@H](N)[C@@H](C)O)C(C)C)C(C)C)[C@@H](C)O)C(=O)N1CCC[C@H]1C(=O)N[C@@H](Cc1ccc(O)cc1)C(=O)NCC(=O)N[C@@H](CS)C(=O)N[C@@H](CC(C)C)C(=O)N[C@@H](CC(C)C)C(=O)O` [Her2/neu.793], the IC50 on DRB1*0101 (DR1) was determined as 22 nM; at DRB1*0701 (DR7) it was 2500 nM.

Consider `CC[C@H](C)[C@H](NC(=O)[C@H](CCC(N)=O)NC(=O)[C@H](CCSC)NC(=O)[C@H](CS)NC(=O)[C@H](Cc1c[nH]c2ccccc12)NC(=O)[C@H](CC(N)=O)NC(=O)[C@H](CC(C)C)NC(=O)[C@@H](N)CC(C)C)C(=O)N[C@@H](C)C(=O)N[C@@H](CCCCN)C(=O)NCC(=O)N[C@@H](CCSC)C(=O)N[C@@H](CO)C(=O)N[C@@H](Cc1ccc(O)cc1)C(=O)N[C@@H](CC(C)C)C(=O)O` [Her2/neu.822], for which the values for the half-maximal inhibitory concentration (IC50) at DRB1*0101 (DR1) and on DRB1*0701 (DR7) were 6 nM and 208 nM, respectively.

On DRB1*0701 (DR7), `CSCC[C@H](NC(=O)[C@H](CC(C)C)NC(=O)[C@H](CCC(=O)O)NC(=O)[C@H](Cc1c[nH]c2ccccc12)NC(=O)[C@@H](NC(=O)[C@@H](NC(=O)[C@@H](NC(=O)CN)C(C)C)[C@@H](C)O)C(C)C)C(=O)N[C@H](C(=O)N[C@@H](Cc1ccccc1)C(=O)NCC(=O)N[C@@H](C)C(=O)N[C@@H](CCCCN)C(=O)N1CCC[C@H]1C(=O)N[C@@H](Cc1ccc(O)cc1)C(=O)O)[C@@H](C)O` [Her2/neu.909] yielded an IC50 of 1470 nM.

The compound `CC[C@H](C)[C@H](NC(=O)CNC(=O)[C@H](CC(=O)O)NC(=O)[C@H](Cc1ccc(O)cc1)NC(=O)[C@@H]1CCCN1C(=O)[C@H](CCCCN)NC(=O)[C@H](C)NC(=O)CNC(=O)[C@H](Cc1ccccc1)NC(=O)[C@@H](NC(=O)[C@H](CCSC)NC(=O)[C@H](CC(C)C)NC(=O)[C@H](CCC(=O)O)NC(=O)[C@H](Cc1c[nH]c2ccccc12)NC(=O)[C@@H](N)C(C)C)[C@@H](C)O)C(=O)O` [Her2/neu.912] showed a half-inhibitory concentration (IC50) at DRB1*0101 (DR1) of 58 nM.

On DRB1*0401 (DR4w4), `CC[C@H](C)[C@H](NC(=O)[C@H](CCSC)NC(=O)[C@H](Cc1c[nH]c2ccccc12)NC(=O)[C@H](CS)NC(=O)[C@H](CCCCN)NC(=O)[C@@H](NC(=O)[C@H](CCSC)NC(=O)[C@@H](NC(=O)[C@H](CCSC)NC(=O)[C@H](Cc1ccc(O)cc1)NC(=O)[C@@H](NC(=O)[C@@H](N)CC(=O)O)C(C)C)[C@@H](C)CC)C(C)C)C(=O)N[C@@H](CC(=O)O)C(=O)N[C@@H](CO)C(=O)N[C@@H](CCC(=O)O)C(=O)O` [Her2/neu.950] had an IC50 of 790 nM. In other words, the sub-micromolar range.

AYPDSLPDF [Herw/neu414.Y2F9] came in with an IC50 on A*2402 of 24 nM.

Consider AYSLTLQGF [Her2/neu.440.F9], for which, at A*2402, the IC50 worked out at 52 nM. Against the preceding compound, the IC50 is about 2.2-fold higher.

AYSLTLQGL [Her2/neu.440]: the concentration for half-maximal inhibition (IC50) on A*2402 was 92 nM.

CYGLGMEHF [Her2/neu.342.F9] gave a half-inhibitory concentration (IC50) on A*2402 of 164 nM.

DMKLRLPASPETHLD [Her2/neu.30] returned an IC50 at DRB1*0101 (DR1) of 5000 nM.

Consider ETELVEPLTPSGAMP [Her2/neu.693], for which, on DRB1*0101 (DR1), the half-maximal inhibitory concentration (IC50) is 833 nM. This IC50 is about 6-fold lower than that of the compound before.

ETHLDMLRHLY [Her2/neu.40]: the IC50 at A*0101 came out at 89 nM.

Turning to ETMPNPEGRY [Her2/neu.280.T2], the concentration for half-maximal inhibition (IC50) at A*0101 was 3.9 nM.

On A*0101, GTDLFEDNY [Her2/neu.104.D3] registered an IC50 of 0.9 nM.

The compound GTDMKLRLPY [Her2/neu.28.Y10] displayed a 50% inhibitory concentration (IC50) at A*0101 of 50 nM.

Compound HTDMLRHLY [Her2/neu.42.T2] returned a concentration for half-maximal inhibition (IC50) at A*0101 of 1.9 nM.

Compound ITDFGLARLLDIDET [Her2/neu.861] yielded an IC50 at DRB1*0101 (DR1) of 1040 nM.

For LLVVVLGVVFGILIK [Her2/neu.662], at DRB1*0101 (DR1), the IC50 was > 6250 nM.

Regarding LYISAWPDSF [Her2/neu,410.F10], the IC50 at A*2402 was 10 nM.

Regarding LYISAWPDSL [Her2/neu.410], at A*2402, the IC50 amounted to 143 nM.

Compound QPDVRPQPPSPREGP [Her2/neu.1142] displayed a concentration for half-maximal inhibition (IC50) on DRB1*0101 (DR1) of 7140 nM.

Turning to TYLPTNASF [Her2/neu.63.F9], at A*2402, the IC50 turned out to be 44 nM.

In the case of VEPLTPSGAMPNQAQ [Her2/neu.697], the concentration for half-maximal inhibition (IC50) on DRB1*0101 (DR1) was > 6250 nM.

For the compound VFETLEEITGY [Her2/neu.399], at A*0101, the IC50 stood at 5560 nM.

As usually defined, the IC50 is the concentration at which inhibition is half-maximal. Higher therefore signals weaker potency.

For the origin of these results see patent EP1568373A2, “Inducing cellular immune responses to HER2/neu using peptide and nucleic acid compositions” (priority 1999, dated 2001).
